Laboratory results taken from the NIST ThermoML archive (doi:10.1021/je060339m).
± gives the expanded uncertainty stated by the source.

Conditions: Liquid

CCOC(C)=O [ethyl acetate]
mass density (343.15 K, 15000 kPa): 857.3 ± 4.9 kg/m3
mass density (343.15 K, 20000 kPa): 863 ± 5.5 kg/m3
mass density (343.15 K, 25000 kPa): 868.5 ± 6.1 kg/m3
mass density (343.15 K, 30000 kPa): 875.1 ± 6.7 kg/m3
mass density (343.15 K, 35000 kPa): 881.6 ± 7.3 kg/m3
mass density (348.15 K, 100 kPa): 829.4 ± 3.1 kg/m3
mass density (348.15 K, 1000 kPa): 830.5 ± 3.3 kg/m3
mass density (348.15 K, 2000 kPa): 832.3 ± 3.4 kg/m3
mass density (348.15 K, 3000 kPa): 833.8 ± 3.5 kg/m3
mass density (348.15 K, 3800 kPa): 835 ± 3.6 kg/m3
mass density (348.15 K, 5000 kPa): 836.8 ± 3.7 kg/m3
mass density (348.15 K, 10000 kPa): 845.5 ± 4.3 kg/m3
mass density (348.15 K, 15000 kPa): 851.8 ± 4.9 kg/m3
mass density (348.15 K, 20000 kPa): 857.7 ± 5.5 kg/m3
mass density (348.15 K, 25000 kPa): 863.5 ± 6.1 kg/m3
mass density (348.15 K, 30000 kPa): 870.2 ± 6.7 kg/m3
mass density (348.15 K, 35000 kPa): 877 ± 7.3 kg/m3
mass density (353.15 K, 1000 kPa): 824.3 ± 3.3 kg/m3
mass density (353.15 K, 2000 kPa): 826 ± 3.4 kg/m3
mass density (353.15 K, 3000 kPa): 827.5 ± 3.5 kg/m3
mass density (353.15 K, 3800 kPa): 828.8 ± 3.6 kg/m3
mass density (353.15 K, 5000 kPa): 830.6 ± 3.7 kg/m3
mass density (353.15 K, 10000 kPa): 837.7 ± 4.3 kg/m3
mass density (353.15 K, 15000 kPa): 844.3 ± 4.9 kg/m3
mass density (353.15 K, 20000 kPa): 850.4 ± 5.5 kg/m3
mass density (353.15 K, 25000 kPa): 856.1 ± 6.1 kg/m3
mass density (353.15 K, 30000 kPa): 862.7 ± 6.7 kg/m3
mass density (353.15 K, 35000 kPa): 869.6 ± 7.3 kg/m3
mass density (358.15 K, 1000 kPa): 818.4 ± 3.3 kg/m3
mass density (358.15 K, 2000 kPa): 820 ± 3.4 kg/m3
mass density (358.15 K, 3000 kPa): 821.6 ± 3.5 kg/m3
mass density (358.15 K, 3800 kPa): 822.8 ± 3.6 kg/m3
mass density (358.15 K, 5000 kPa): 824.7 ± 3.7 kg/m3
mass density (358.15 K, 10000 kPa): 832.1 ± 4.3 kg/m3
mass density (358.15 K, 15000 kPa): 838.9 ± 4.9 kg/m3
mass density (358.15 K, 20000 kPa): 845.2 ± 5.5 kg/m3
mass density (358.15 K, 25000 kPa): 851 ± 6.1 kg/m3
mass density (358.15 K, 30000 kPa): 857.6 ± 6.7 kg/m3
mass density (358.15 K, 35000 kPa): 864.7 ± 7.3 kg/m3
mass density (363.15 K, 1000 kPa): 811.8 ± 3.3 kg/m3
mass density (363.15 K, 2000 kPa): 813.5 ± 3.4 kg/m3
mass density (363.15 K, 3000 kPa): 815.3 ± 3.5 kg/m3
mass density (363.15 K, 3800 kPa): 816.6 ± 3.6 kg/m3
mass density (363.15 K, 5000 kPa): 818.5 ± 3.7 kg/m3
mass density (363.15 K, 10000 kPa): 826.3 ± 4.3 kg/m3
mass density (363.15 K, 15000 kPa): 833.3 ± 4.9 kg/m3
mass density (363.15 K, 20000 kPa): 839.7 ± 5.5 kg/m3
mass density (363.15 K, 25000 kPa): 845.8 ± 6.1 kg/m3
mass density (363.15 K, 30000 kPa): 852.9 ± 6.7 kg/m3
mass density (363.15 K, 35000 kPa): 860.2 ± 7.3 kg/m3
mass density (368.15 K, 1000 kPa): 804.9 ± 3.3 kg/m3
mass density (368.15 K, 2000 kPa): 806.8 ± 3.4 kg/m3
mass density (368.15 K, 3000 kPa): 808.6 ± 3.5 kg/m3
mass density (368.15 K, 3800 kPa): 810 ± 3.6 kg/m3
mass density (368.15 K, 5000 kPa): 812.1 ± 3.8 kg/m3
mass density (368.15 K, 10000 kPa): 820.2 ± 4.4 kg/m3
mass density (368.15 K, 15000 kPa): 827.5 ± 5 kg/m3
mass density (368.15 K, 20000 kPa): 834.3 ± 5.6 kg/m3
mass density (368.15 K, 25000 kPa): 840.6 ± 6.2 kg/m3
mass density (368.15 K, 30000 kPa): 848 ± 6.8 kg/m3
mass density (368.15 K, 35000 kPa): 855.5 ± 7.4 kg/m3
mass density (373.15 K, 1000 kPa): 798.5 ± 3.3 kg/m3
mass density (373.15 K, 2000 kPa): 800.4 ± 3.4 kg/m3
mass density (373.15 K, 3000 kPa): 802.4 ± 3.5 kg/m3
mass density (373.15 K, 3800 kPa): 803.8 ± 3.6 kg/m3
mass density (373.15 K, 5000 kPa): 806 ± 3.8 kg/m3
mass density (373.15 K, 10000 kPa): 814.4 ± 4.4 kg/m3
mass density (373.15 K, 15000 kPa): 822 ± 5 kg/m3
mass density (373.15 K, 20000 kPa): 829 ± 5.6 kg/m3
mass density (373.15 K, 25000 kPa): 835.5 ± 6.2 kg/m3
mass density (373.15 K, 30000 kPa): 843 ± 6.8 kg/m3
mass density (373.15 K, 35000 kPa): 850.6 ± 7.4 kg/m3
mass density (378.15 K, 1000 kPa): 791.8 ± 3.3 kg/m3
mass density (378.15 K, 2000 kPa): 793.8 ± 3.4 kg/m3
mass density (378.15 K, 3000 kPa): 795.8 ± 3.5 kg/m3
mass density (378.15 K, 3800 kPa): 797.3 ± 3.6 kg/m3
mass density (378.15 K, 5000 kPa): 799.6 ± 3.8 kg/m3
mass density (378.15 K, 10000 kPa): 808.5 ± 4.4 kg/m3
mass density (378.15 K, 15000 kPa): 816.5 ± 5 kg/m3
mass density (378.15 K, 20000 kPa): 823.7 ± 5.6 kg/m3
mass density (378.15 K, 25000 kPa): 830.5 ± 6.2 kg/m3
mass density (378.15 K, 30000 kPa): 838.4 ± 6.8 kg/m3
mass density (378.15 K, 35000 kPa): 846.3 ± 7.4 kg/m3
mass density (383.15 K, 1000 kPa): 784.8 ± 3.3 kg/m3
mass density (383.15 K, 2000 kPa): 787.1 ± 3.4 kg/m3
mass density (383.15 K, 3000 kPa): 789.1 ± 3.5 kg/m3
mass density (383.15 K, 3800 kPa): 790.8 ± 3.6 kg/m3
mass density (383.15 K, 5000 kPa): 793.2 ± 3.8 kg/m3
mass density (383.15 K, 10000 kPa): 802.4 ± 4.4 kg/m3
mass density (383.15 K, 15000 kPa): 810.7 ± 5 kg/m3
mass density (383.15 K, 20000 kPa): 818.2 ± 5.6 kg/m3
mass density (383.15 K, 25000 kPa): 825.3 ± 6.2 kg/m3
mass density (383.15 K, 30000 kPa): 833.5 ± 6.8 kg/m3
mass density (383.15 K, 35000 kPa): 841.6 ± 7.4 kg/m3
mass density (388.15 K, 1000 kPa): 778.2 ± 3.3 kg/m3
mass density (388.15 K, 2000 kPa): 780.5 ± 3.4 kg/m3
mass density (388.15 K, 3000 kPa): 782.7 ± 3.6 kg/m3
mass density (388.15 K, 3800 kPa): 784.4 ± 3.7 kg/m3
mass density (388.15 K, 5000 kPa): 786.9 ± 3.8 kg/m3
mass density (388.15 K, 10000 kPa): 796.4 ± 4.4 kg/m3
mass density (388.15 K, 15000 kPa): 805.1 ± 5 kg/m3
mass density (388.15 K, 20000 kPa): 813 ± 5.6 kg/m3
mass density (388.15 K, 25000 kPa): 820.3 ± 6.2 kg/m3
mass density (388.15 K, 30000 kPa): 828.8 ± 6.8 kg/m3
mass density (388.15 K, 35000 kPa): 837.2 ± 7.4 kg/m3
mass density (393.15 K, 1000 kPa): 771 ± 3.3 kg/m3
mass density (393.15 K, 2000 kPa): 773.5 ± 3.5 kg/m3
mass density (393.15 K, 3000 kPa): 775.9 ± 3.6 kg/m3
mass density (393.15 K, 3800 kPa): 777.7 ± 3.7 kg/m3
mass density (393.15 K, 5000 kPa): 780.4 ± 3.8 kg/m3
mass density (393.15 K, 10000 kPa): 790.5 ± 4.4 kg/m3
mass density (393.15 K, 15000 kPa): 799.4 ± 5 kg/m3
mass density (393.15 K, 20000 kPa): 807.6 ± 5.6 kg/m3
mass density (393.15 K, 25000 kPa): 815.2 ± 6.2 kg/m3
mass density (393.15 K, 30000 kPa): 823.9 ± 6.8 kg/m3
mass density (393.15 K, 35000 kPa): 832.4 ± 7.4 kg/m3
